Fold decrease autoluminescence and Effect on luminescence data for one molecule are collected here from patent US7108996B2, “Method for increasing luminescence assay sensitivity” (Promega Corporation, priority 2000, dated 2006).

For test [1] the following is noted: 100 mM compound, Format A. Here is the method:
(§1) The enzymatic luminescence measurement may have an autoluminescence component.
(§2) Format A Assays were performed in the presence of Steady Glo® reagent (SG) and Stop & Glo® reagent (S+G), (Promega Corporation, Madison Wis.). A total reaction volume of 150 μl consisted of:
(§3) 50 μl F-12 (Ham) media+1 mg/ml gelatin (with or without enzyme^1)
(§4) 50 μl S+G (containing substrate^2)
(§5) 50 μl SG ^1 Renilla luciferase enzyme was added to F-12 cell culture media containing 1% gelatin, to a concentration of approximately 2.5 ng/50 μl media. Reactions in the absence of Renilla luciferase reveal the effect of the compound on autoluminescence while reactions in the presence of enzyme reveal the effect of the compound on Renilla luciferase-catalyzed luminescence.^2 The S+G reagent was prepared as per manufacturer's instructions, with the exception that for these experiments a S+G solvent three times more concentrated than normal was used to resuspend the S+G substrate.
(§6) The compound to be tested was re-suspended in either SG or S+G reagent to a final concentration of SG or S+G of (1×). The compound was added so the final concentration in the 150 μl total volume would be that listed in Table 1 and the reagent was diluted to the a final of 50 μl with water. For controls, the SG or S+G reagent was brought up to 50 μl with water or with the solvent used to dissolve the compound of interest. For example, if a compound needed to be dissolved in DMSO (dimethyl sulphoxide), an equal volume of DMSO was added to the control reaction. Unless otherwise indicated, the compounds were first dissolved in water.
(§7) For each concentration of a particular compound, a mixture containing all of the components in sufficient amounts for four reactions (i.e. 200 μl media, 200 μl SG, 200 μl S+G) was assembled. From this mixture, 150 μl was dispensed into triplicate wells on a 96-well plate. Alternatively, reactions were sometimes assembled in each well of the plate by adding each of the 50 μl portions and mixing. The plate was incubated at 22° C. and after 5 minutes the luminescence was measured using a Dynex plate luminometer (1 second measurement per well).
(§8) a) fold-decrease in non-enzymatic autoluminescence measurement in the presence of the compound when compared to the absence of the compound and, […]

The target of test [2] is T1, Renilla luciferase (Renilla reniformis, UniProt P27652). Particulars: 100 mM compound, Format A. Here is the method: as §1, §2, §3, §4, §5, §6, §7
T1 sequence (P27652 whole entry): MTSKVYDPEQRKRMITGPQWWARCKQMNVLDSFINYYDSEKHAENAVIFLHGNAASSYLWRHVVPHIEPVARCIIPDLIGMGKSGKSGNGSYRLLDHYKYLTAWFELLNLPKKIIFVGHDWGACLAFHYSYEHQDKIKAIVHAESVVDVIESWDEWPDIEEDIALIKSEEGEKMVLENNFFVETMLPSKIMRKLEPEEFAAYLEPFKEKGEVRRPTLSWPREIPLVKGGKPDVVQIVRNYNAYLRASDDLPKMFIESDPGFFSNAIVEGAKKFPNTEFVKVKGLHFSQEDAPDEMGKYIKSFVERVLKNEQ
(§9) b) effect of the compound on enzymatic luminescence measurement in the presence of the compound when compared to control samples lacking only the compound.

The conditions of test [3]: 30 mM compound. The method, then: as §1
(§10) Format B Experiments were performed in a reaction volume of 150 μl Matthew's Buffer (referred to herein as MB) as either a standard MB composition or a modified MB composition as described below. As with Format A, reactions with and without Renilla luciferase were carried out to observe the effect of the organic compounds on assay sensitivity.
(§11) 1× Matthew's buffer standard composition consists of:
(§12) In order to observe the autoluminescence enhanced only by the detergent, for the majority of the experiments, BSA was replaced with porcine gelatin as the enzyme stabilizer at a final concentration of 0.15 mg/ml or 0.45 mg/ml. Taking all the variants into account the format can be sub-divided in 4 different versions:
(§13) Reactions were carried out in triplicate by adding each of the 50 μl portions to microtiter plate wells and mixing. The resulting relative light units generated per well was measured immediately using a Dynex MLX Microtiter plate luminometer or a Wallac 1450 MicroBeta Trilux plate luminometer (1 second/well) or alternatively, the plate was incubated at 22° C. and read after 5 minutes in the same fashion.
as §8

Test [4] concerns the target T1, Renilla luciferase. Particulars: 30 mM compound, Format B3 (gelatin, detergent). The method, then:
as §1, §10, §11, §12, §13, §9

Where two headings read alike, the source gives them in different places.

For `NCCS` [Compound 8], the Fold decrease autoluminescence stood at 6 fold in test [1]; 20 fold in test [3] (Format B3 (gelatin, detergent)); 3.5 fold in test [3] (Format B4 (gelatin, no detergent)). Also, the Effect on luminescence entry on Renilla luciferase [2] and on Renilla luciferase [4] was “No effect” each time.
